Measurements as given in patent US9006205B2, “Antisense oligonucleotides against neutral sphingomyelinase and neutral sphingomyelinase inhibitor GW4869 for degenerative neurological disorders” (Rush University Medical Center, priority 2011, dated 2015).

Columns and labels:
Assay type in all cases: cell-based
primary human neurons [1] = assay: MTT metabolism of neurons in astrocyte-neuron trans-well; conditions: neurons pretreated with oligonucleotide; 18 h of stimulation
Description: (§1) Primary human astrocytes were grown to confluency on inserts. After 24 h of stimulation by the combination of Aβ (1 μM) and IL-Iβ (10 ng/ml), inserts were washed thrice with HBSS and then placed onto the wells containing primary human neurons. Therefore, in this trans-well model, although neurons and astrocytes face each other, they are separable and the effect of soluble factors released from activated astrocytes on neurons can be studied allowing analysis of neuronal and glial populations separately.
Mitochondrial activity was measured with the 3-(4,5-dimethylthiazol-2-yl)-2,5-diphenyltetrazolium bromide (MTT) assay (Sigma). The cells were grown on 24-well culture plates with 500 μl of medium and treated with various reagents according to the experimental design. At the end of the treatment period, 300 μl of culture medium were removed from each well, and 20 μl of MTT solution (5 mg/ml) were added and incubated for 1 h.
(§2) Primary human neurons were incubated with antisense (ASO) and scrambled oligonucleotides (ScO) against N-SMase (A) and A-SMase (FIG. 2B). After 48 h, neurons were analyzed for protein expression of N-SMase and A-SMase. In FIG. 2C, primary human astrocytes seeded in inserts were stimulated by the combination of Aβ and IL-1β as described above. […] After 6 h of treatment with activated astrocytes, apoptotic events in neurons were detected by TUNEL. In FIG. 2D, TUNEL-positive cells were counted manually in four different images of each of three coverslips by three individuals blinded to the experiment. […] Values obtained from the control group served as 100%, and data obtained in other groups were calculated as percent of control accordingly. […]
In FIGS. 3A-3E, primary human astrocytes seeded in inserts were stimulated by the combination of Aβ and IL-Iβ as described above. […] In FIG. 3A, after 1 h, activity of N-SMase was measured in total cell extracts of neurons as described above. […] Values obtained from the control group served as 100%, and data obtained in other groups were calculated as percent of control accordingly.

iNOS = iNOS mRNA expression (RT-PCR, real-time PCR) in activated primary human astrocytes; conditions: oligonucleotide 40 h, then 6 h of stimulation
Description: (§3) Total RNA was isolated from human primary astrocytes using RNA-Easy Qiagen kit following manufactures protocol. To remove any contaminating genomic DNA, total RNA was digested with DNase. Semi-quantitative RT-PCR was carried out as described earlier using oligo (dT) 12-18 as primer and MMLV reverse transcriptase (Clontech) in a 20-μl reaction mixture. The resulting cDNA was appropriately diluted, and diluted cDNA was amplified using Titanium Taq polymerase and the following primers for human proinflammatory genes: […]
It was performed using the ABI-Prism7700 sequence detection system (Applied Biosystems, Foster City, Calif.) using TaqMan Universal Master Mix and optimized concentrations of FAM-labeled probe, forward and reverse primers (Applied Biosystems) as described earlier. […] Data were processed by the ABI Sequence Detection System 1.6 software and analyzed by ANOVA.
Cells pretreated with ASO and ScO against N-SMase and A-SMase for 40 h were stimulated with (Aβ+IL-1β) under serum-free condition. After 24 h of stimulation, the concentration of nitrite was measured in supernatants (FIG. 4A) by Griess reagent. […] After 6 h, the expression of iNOS mRNA was analyzed by both semi-quantitative RT-PCR (C) and quantitative real-time PCR (FIG. 4D). The expression of TNF-a, IL-6 and IL-Iβ mRNAs were analyzed by semi-quantitative RT-PCR (FIG. 4E). […]

primary human neurons [2] = assay: TUNEL apoptosis of neurons challenged by (fibrillar Aβ+IL-1β)-activated astrocytes, astrocyte-neuron trans-well; conditions: neurons pretreated 40 h with 1 μM oligonucleotide; 6 h with (fibrillar Aβ+IL-1β)-activated astrocytes
Description: as §1
Fragmented DNA was detected in situ by the terminal deoxynucleotidyltransferase-mediated binding of 3′-OH ends of DNA fragments generated in response to fibrillar Aβ1-42, using a commercially available kit (TdT FragEL™) from Calbiochem. […]
as §2, with “A-SMase.” for “A-SMase. In FIG. 2C, primary human astrocytes seeded in inserts were stimulated by the combination of Aβ and IL-1β as described above.”

primary human neurons [3] = assay: TUNEL apoptosis of neurons challenged by oligomeric Aβ-activated astrocytes, trans-well; conditions: neurons pretreated 40 h with 1 μM oligonucleotide; 6 h
Description: Fragmented DNA was detected in situ by the terminal deoxynucleotidyltransferase-mediated binding of 3′-OH ends of DNA fragments generated in response to fibrillar Aβ1-42, using a commercially available kit (TdT FragEL™) from Calbiochem. Briefly, cover slips were treated with 20 μg/ml proteinase K for 15 min at room temperature and washed prior to terminal deoxynucleotidyltransferase staining.
In FIG. 5A, primary astrocytes were stimulated with fibrillar Aβ1-42, oligomeric Aβ1-42 and reverse peptide Aβ42-1 for 24 h followed by double-labeling of GFAP and iNOS. In FIG. 5B, primary human astrocytes seeded in inserts were stimulated with a combination of I μM of oligomeric Aβ1-42 and 10 ng/ml of IL-Iβ in serum free media. […] After 6 h, neuronal apoptosis was monitored by TUNEL. In FIG. 5C, TUNEL-positive cells were counted manually in four different images of each of three coverslips by three individuals blinded to the experiment. Values obtained from the control group (1) served as 100%, and data obtained from other three groups i.e. the oligomeric Aβ-activated astrocytes (OAA) group (2), the ASO-OAA group (3), and the ScO-OAA group (4) was calculated as percent of control accordingly. Results are mean+S.D. of three different experiments. ^ap<0.001 vs control; ^bp<0.001 vs OAA.

[4] = tested on: TNF-α, IL-1β and IL-6 mRNAs; assay: TNF-α, IL-1β and IL-6 mRNA expression (RT-PCR) in activated primary human astroglia; conditions: oligonucleotide 40 h, then 6 h of stimulation
Description: as §3
Cells pretreated with ASO and ScO against N-SMase and A-SMase for 40 h were stimulated with (Aβ+IL-1β) under serum-free condition. After 24 h of stimulation, the concentration of nitrite was measured in supernatants (FIG. 4A) by Griess reagent. […] Cells were treated with ASO/ScO for 40 h followed by stimulation with the combination of fibrillar Aβ and IL-Iβ as above. After 6 h, the expression of iNOS mRNA was analyzed by both semi-quantitative RT-PCR (C) and quantitative real-time PCR (FIG. 4D). The expression of TNF-a, IL-6 and IL-Iβ mRNAs were analyzed by semi-quantitative RT-PCR (FIG. 4E). Results are mean±SD of three different experiments. ^ap<0.001 vs control; ^bp<0.001 vs (Aβ+IL-Iβ).

5′- CAGCGAGCCCGTCCACCAGCC -3′ (DNA, all phosphorothioate, methylation of C not given here) [ASO against N-SMase, ID; NO.: 12]
activated astroglia-mediated loss of MTT metabolism (primary human neurons [1]): effectively prevented
(Aβ+IL-1β)-induced expression of iNOS mRNA (iNOS): strongly inhibited
protection of neurons from activated astrocyte-induced apoptosis (TUNEL) (primary human neurons [2]): markedly protected
oligomeric Aβ-activated astrocyte-induced apoptosis of human neurons (TUNEL) (primary human neurons [3]): blocked
(Aβ+IL-1β)-induced expression of TNF-α, IL-1β and IL-6 mRNAs [4]: abrogated
